Like-named read-outs stand apart in the source and are kept apart here. Some results are limits rather than exact numbers.

From PMC10820890, “Potential of Tryptamine Derivatives as Multi-Target Directed Ligands for Alzheimer’s Disease: AChE, MAO-B, and COX-2 as Molecular Targets” (Molecules, 2024) come the findings set out here.

One assay concerns the target AChE from electric eel (Electrophorus electricus, UniProt O42275). Description: biochemical. To be noted: mean of three independent measurements, read-out: AChE (IC50 ± SD). From the text:
The AChE inhibitory potential of the synthesized tryptamine derivatives was investigated using a modified Ellman’s method. In this enzymatic assay, thiocholine, the product of enzymatic hydrolysis, lacks a substantial chromophore for UV detection. Therefore, Ellman’s reagent (DTNB) was employed as the chromogenic chemical. Ellman’s procedure for the in vitro acetylcholinesterase inhibition assay is based on a two-step reaction involving the chemical components DTNB (5,5-dithiobis(2-nitro) benzoic acid), a hydrolyzed substrate (thiocholine), and the enzyme AChE [59]. In the first step, the substrate acetylthiocholine iodide undergoes hydrolysis catalyzed by the AChE enzyme, resulting in the formation of thiocholine and acetic acid. In the second step, TNB (5-thio-2-nitrobenzoic acid) is generated by the reaction between Ellman’s reagent (DTNB) and thiocholine through an electron-shifting process to sulfur. […] Higher enzyme activity is reflected by an increase in absorbance at this wavelength. The formation of TNB is directly associated with the hydrolysis of acetylthiocholine iodide. Each reaction was initiated by taking a 2 mL working solution, which consisted of 150 µL of the sample (either test compounds or positive control), 50 µL of 0.22 units/mL acetylcholinesterase enzyme from electric eel origin (AChE, E.C. 3.1.1.7, in lyophilized powder, ≥1000 unit), and sodium phosphate buffer (0.1 M, pH 7.4), making it up to a total of 2 mL. The working solution was then incubated at room temperature ([…]) for 15 min, after which 1 mL of Ellman’s solution (200 µL of 75 mM ACTI and 500 µL of 10 mM DTNB in 15 mL sodium phosphate buffer) was added. The stock solutions of tryptamine analogs were prepared in dimethyl sulfoxide (DMSO) 100%. […] All chemicals were purchased from Sigma-Aldrich, St. Louis, MO, USA and TCI Tokyo Chemical Industry Co., Ltd., Saitama, Japan. […] A negative control reaction was also performed under the same conditions but without the inclusion of samples. In this assay, the blank consisted of sodium phosphate buffer. Each experiment was conducted in triplicate.
The percentage of acetylcholinesterase inhibition activity for each tested dilution was calculated using the following equation: Percent inhibition activity%=Absorbance of control−Absorbance of test/Absorbanec of control×100
The results were then presented in a tabular format as the mean IC50 ± SD. The IC50 values, which represent the half-maximal inhibitory concentration, were determined by creating a graph that relates different concentrations (µM) to the percent inhibition (%) using the linear regression method provided by GraphPad Prism software 7 [61, 62, 63].

The next assay has as its target T1, Human recombinant COX-2 (Homo sapiens, UniProt P35354).
T1 construct: purchased BioVision (kit manual cited); the text also says reagents came from Sigma-Aldrich K547
T1 sequence (P35354 18-604): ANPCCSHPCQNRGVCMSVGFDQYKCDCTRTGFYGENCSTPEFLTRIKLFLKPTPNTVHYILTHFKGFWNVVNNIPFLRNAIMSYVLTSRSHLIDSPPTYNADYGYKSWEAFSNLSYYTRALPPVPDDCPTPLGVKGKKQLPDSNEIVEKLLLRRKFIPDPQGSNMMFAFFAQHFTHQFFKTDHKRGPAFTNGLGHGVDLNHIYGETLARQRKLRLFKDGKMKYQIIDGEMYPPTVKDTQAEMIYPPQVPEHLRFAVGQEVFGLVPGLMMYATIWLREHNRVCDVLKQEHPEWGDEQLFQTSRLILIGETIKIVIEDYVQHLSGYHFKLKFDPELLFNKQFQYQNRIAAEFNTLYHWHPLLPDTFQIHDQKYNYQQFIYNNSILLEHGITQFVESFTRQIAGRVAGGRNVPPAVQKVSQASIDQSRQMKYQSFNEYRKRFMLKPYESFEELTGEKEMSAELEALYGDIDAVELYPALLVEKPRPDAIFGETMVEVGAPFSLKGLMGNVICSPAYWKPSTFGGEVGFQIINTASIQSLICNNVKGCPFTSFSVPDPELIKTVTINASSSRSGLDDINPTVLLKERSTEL
Kind of assay: In vitro fluorometric COX-2 inhibition assay kit. It counts as biochemical. As to conditions: compounds tested at 100 µM, mean of three independent measurements; for inhibition at 100 µM: read-out: COX-2 (%Inhibition ± SD). On the procedure: The fluorometric COX-2 inhibition assay kit provides a simple, fast, sensitive, and consistent method appropriate for carrying out high-throughput analysis for COX-2 inhibitors. The assay is based on the formation of prostaglandin G2 (PG2), which is an intermediate made from arachidonic acid under the action of the COX-2 enzyme. The reagents were prepared, and testing procedures were executed according to these recommended guidelines. The fluorescence of the samples was measured in an opaque 96-well plate at a temperature of 37 °C, precisely 5 min after the initiation of the experiment, utilizing a microplate reader from Thermo Scientific, USA. All compounds were tested at a concentration of 100 µM in a DMSO-1% solution. […] Dilutions were prepared in sodium phosphate buffer 0.1 M, pH 7.4. All the reagents were purchased from Sigma-Aldrich, St. Louis, MO, USA. The mean fluorescence values were calculated to determine the percentage of inhibition achieved by each compound. […] Each experiment was conducted in triplicate, and the percent inhibition was calculated using the following formula: % Inhibition=fluorescence of control−fluorescence of test compound/fluorescence of control×100

Assay [1] deals with T2, MAO-B extracted from the rat brain (Rattus norvegicus, UniProt P19643).
T2 construct: Synaptosomes containing the MAO enzyme were isolated from the rat brain; from tissue; host or cells: rat brain synaptosomes (Dawley rats)
T2 sequence (P19643 1-520): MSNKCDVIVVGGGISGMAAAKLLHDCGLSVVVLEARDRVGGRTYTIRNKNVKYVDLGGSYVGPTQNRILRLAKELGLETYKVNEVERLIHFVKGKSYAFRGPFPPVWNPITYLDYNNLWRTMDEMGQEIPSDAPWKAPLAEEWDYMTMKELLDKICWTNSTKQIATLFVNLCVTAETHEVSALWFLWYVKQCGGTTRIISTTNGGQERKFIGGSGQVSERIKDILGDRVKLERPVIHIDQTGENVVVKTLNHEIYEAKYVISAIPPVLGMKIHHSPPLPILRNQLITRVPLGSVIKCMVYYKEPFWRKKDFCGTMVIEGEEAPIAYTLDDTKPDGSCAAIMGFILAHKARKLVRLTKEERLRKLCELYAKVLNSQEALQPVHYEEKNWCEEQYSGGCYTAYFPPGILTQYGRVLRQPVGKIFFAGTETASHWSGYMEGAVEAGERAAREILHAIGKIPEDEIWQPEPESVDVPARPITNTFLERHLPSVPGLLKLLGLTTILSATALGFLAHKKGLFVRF
Kind of assay: MAO-B inhibition, Amplex Red monoamine oxidase assay kit. It is filed as biochemical. From the text: Synaptosomes containing the MAO enzyme were isolated from the rat brain by the method of Hojas, with some modification. Three Dawley rats of any sex with weight ranging from 200–250 gm were decapitated after administration of an anesthetic agent (mixture of propofol and xylocaine). Immediately, complete brains were removed from the bed of ice on a petri dish, and the brains were washed with ice-chilled PBS (phosphate-buffered saline) of pH 7.0, 0.1M and normal saline. Then, each brain, weighing approximately 1 g, was suspended into 10 mL of ice-chilled […] sucrose pH 7.4 20% w/v accordingly and homogenized for 10 min using Daihan homogenizer HG-15A. Brain homogenate was transferred into a centrifuge tube and centrifuged at a speed of 7500× g rpm for 15 min at 4 °C by a Scan Speed 1730R Microcentrifuge from Labo Gene, Marlborough, MA, USA. The supernatant was preserved, and the solid brain mass debris present on the bottom was discarded. The supernatant was then diluted with ice-chilled distilled PBS as per need and centrifuged over 12,000× g rpm for 20 min at 4 °C through the mentioned microcentrifuge. Then, pellets containing a white solid mass at the bottom (synaptosomes containing the MAO enzyme) were stored, and each pallet was diluted with PBS buffer. Aliquoting of synaptosomes was carried out and stored at −70 °C till the assay was performed.
For the evaluation of the MAO-B inhibition potential of synthesized compounds, the Amplex® Red Monoamine Oxidase Assay kit was purchased from Invitrogen Molecular Probes, Thermo Fisher Scientific, Waltham, MA, USA. This is a one-step fluorometric bioassay that principally detects the resorufin (7-Hydroxy-3H-phenoxazin-3-one), which is a fluorescent moiety formed in the presence of Horseradish Peroxidase (HRP) by the oxidation of nonfluorescent compound Amplex Red (AMR), chemically known as 10-acetyl-3,7-dihydroxyphenoxazine. The hydrogen peroxide (H2O2) was synthesized during the conversion of substrate to its aldehyde product by MAO enzyme action. […] The assay was performed according to the instruction of the manufacturer (http://tools.thermofisher.com/content/sfs/manuals/mp12214.pdf; accessed on 20 October 2020), with a few modifications. The Amplex Red reagent kit was used as compared to other H2O2 detection probes because of its stability and the stability of resorufin, which is a reaction product along with the longer wavelength spectra. Extracted MAO-B enzyme from rat brain was diluted in sodium phosphate buffer of pH 7.4, 0.25 M. The substrate for MAO-B was benzylamine. Pargyline was used as a standard. All the stock solutions of inhibitors were prepared in dimethyl sulfoxide (DMSO) 100%. Different dilutions of inhibitors were prepared in reaction buffer to obtain less than 2% (v/v) DMSO for evading false positive results. The final reaction volume contained a two-fold lower concentration of enzyme and the inhibitors. […] H2O2 working solution was diluted in the reaction buffer to prepare a final concentration of 10 µM H2O2 and used as positive control, and the reaction buffer with no H2O2 was the negative control. The reaction was started by adding 100 µL of working solution in each well of a black, opaque, 96-well microplate holding the controls and samples. A total of 50 µL of the MAO enzyme solution was added into each well. The composition of the working solution was 400 µM Amplex Red reagent, reaction buffer, 2 U/mL HRP, and 2 mM substrate solution. The possible interference that can be produced by the fluorescence of the compounds generated within the reaction mixture because of non enzymatic inhibition was eradicated by the addition of samples with Amplex Red only in the reaction buffer. The fluorescence of the blank (control with no enzyme) was subtracted to correct the background fluorescence. All the reactions were incubated at 37 °C for 30 min. […]

Setting [2] is: MAO-B extracted from rat brain, substrate benzylamine, mean of three independent measurements, read-out: MAO-B (IC50 ± SD).

AChE from electric eel, sequence (O42275 24-633): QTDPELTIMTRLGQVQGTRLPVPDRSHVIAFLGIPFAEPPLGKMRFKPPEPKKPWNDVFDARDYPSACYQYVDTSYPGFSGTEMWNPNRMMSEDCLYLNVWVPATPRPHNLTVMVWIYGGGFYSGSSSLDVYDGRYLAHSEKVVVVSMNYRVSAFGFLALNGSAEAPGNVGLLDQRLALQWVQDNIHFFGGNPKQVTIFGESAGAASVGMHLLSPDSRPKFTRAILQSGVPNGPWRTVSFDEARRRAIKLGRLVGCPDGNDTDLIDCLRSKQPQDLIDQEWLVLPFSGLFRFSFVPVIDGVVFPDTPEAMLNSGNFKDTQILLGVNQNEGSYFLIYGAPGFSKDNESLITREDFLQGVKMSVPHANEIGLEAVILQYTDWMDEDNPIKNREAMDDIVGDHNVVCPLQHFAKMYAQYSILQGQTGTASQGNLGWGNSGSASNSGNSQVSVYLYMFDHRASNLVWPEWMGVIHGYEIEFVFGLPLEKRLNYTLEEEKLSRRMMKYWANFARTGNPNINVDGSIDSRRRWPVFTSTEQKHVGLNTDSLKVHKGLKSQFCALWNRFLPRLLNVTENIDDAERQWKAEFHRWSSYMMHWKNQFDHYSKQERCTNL

Usually IC50 stands for the point on the concentration scale where inhibition reaches its midpoint. In general, inhibition refers to the share of the control response that was lost under treatment. In the case of `O=C(CNCCc1c[nH]c2ccccc12)c1ccc(F)cc1` [SR10], the IC50 on AChE from electric eel was determined as 1 ± 0.08 µM; in assay [1] (setting [2]), 216.1 ± 0.29 µM. The inhibition at 100 µM at Human recombinant COX-2 is above 70%.

On to `O=C(CNCCc1c[nH]c2ccccc12)c1ccc(O)c(O)c1` [SR20], for which the IC50 on AChE from electric eel is 24.97 ± 0.05 µM; in assay [1] (setting [2]), 222.1 ± 0.32 µM. The inhibition at 100 µM at Human recombinant COX-2 stood at 68.7 ± 3.86%.

On to `O=C(CNCCc1c[nH]c2ccccc12)c1ccc2ccccc2c1` [SR08], for which the IC50 at AChE from electric eel is 4.36 ± 0.12 µM; in assay [1] (setting [2]), 244.2 ± 1 µM. Besides, the inhibition at 100 µM at Human recombinant COX-2 is 72.3 ± 1.67%.

On to `O=C(CCNCCc1c[nH]c2ccccc12)c1ccccc1` [SR25], for which the figures for the IC50 (at AChE from electric eel; in assay [1]) were 0.17 ± 0.02 µM and 85.1 ± 0.26 µM, respectively. Also, the inhibition at 100 µM at Human recombinant COX-2 was above 70%.

For `O=C(CNCCc1c[nH]c2ccccc12)c1cccc([N+](=O)[O-])c1` [SR22], the results for the IC50 (at AChE from electric eel; in assay [1] (setting [2])) were 54.88 ± 0.19 µM and 56.46 ± 0.41 µM, respectively. Besides, the inhibition at 100 µM on Human recombinant COX-2 came out at 84.1 ± 4.53%.

`O=C(CNCCc1c[nH]c2ccccc12)c1ccccc1[N+](=O)[O-]` [SR21]: the results for the IC50 (on AChE from electric eel; in assay [1] (setting [2])) were 87.73 ± 0.16 µM and 142.1 ± 0.32 µM, respectively. In addition, the inhibition at 100 µM on Human recombinant COX-2 was 34.4 ± 3.34%.

`O=C(CNCCc1c[nH]c2ccccc12)c1ccc(F)cc1F` [SR13]: the figures for the IC50 (at AChE from electric eel; in assay [1] (setting [2])) were 9.68 ± 0.16 µM and 50.6 ± 0.64 µM, respectively. Also, on Human recombinant COX-2, the inhibition at 100 µM worked out at 73.8 ± 2.37%.

In the case of `O=C(NCCc1c[nH]c2ccccc12)c1cc([N+](=O)[O-])cc([N+](=O)[O-])c1` [SR42], the values for the IC50 (on AChE from electric eel; in assay [1] (setting [2])) were 0.7 ± 0.21 µM and 43.2 ± 0.46 µM, respectively. For the same compound, the inhibition at 100 µM at Human recombinant COX-2 is above 70%.

Regarding `COc1ccc(C(=O)CNCCc2c[nH]c3ccccc23)cc1` [SR17], the IC50 on AChE from electric eel worked out at 8.23 ± 0.12 µM; in assay [1] (setting [2]) it was 150.1 ± 0.26 µM. Besides, on Human recombinant COX-2, the inhibition at 100 µM was 72.8 ± 2.54%.

As to `O=C(CNCCc1c[nH]c2ccccc12)c1ccc(-c2ccccc2)cc1` [SR24], the figures for the IC50 (at AChE from electric eel; in assay [1]) were 6.7 ± 0.08 µM and 133.2 ± 0.46 µM, respectively. Moreover, the inhibition at 100 µM on Human recombinant COX-2 is 79.3 ± 2.02%.

Consider `NCCc1c[nH]c2ccccc12` [Tryptamine], for which the IC50 on AChE from electric eel is 88.26 ± 0.24 µM; in assay [1] (setting [2]) it was 288.1 ± 0.32 µM. Besides, on Human recombinant COX-2, the inhibition at 100 µM was determined as 57.3 ± 4.96%.

Consider `C#CCN(C)Cc1ccccc1` [Pargyline, reference compound], for which the 50% inhibitory concentration (IC50) in assay [1] (setting [2]) was found to be 23.4 ± 0.32 µM.

For the compound `O=C(CNCCc1c[nH]c2ccccc12)c1ccc([N+](=O)[O-])cc1` [SR23], the IC50 at AChE from electric eel is 7.33 ± 0.12 µM; in assay [1] (setting [2]), 95.1 ± 0.43 µM. The “COX-2 (%Inhibition ± SD)” value on Human recombinant COX-2 (100 µM) is listed as 71.40 ± 3.11%. Also, the inhibition at 100 µM at Human recombinant COX-2 stood at 69.4 ± 3.11%.

Turning to `Cc1ccc(C(=O)CNCCc2c[nH]c3ccccc23)cc1` [SR14], the 50% inhibitory concentration (IC50) at AChE from electric eel turned out to be 68.71 ± 0.24 µM; in assay [1] (setting [2]), 112.2 ± 0.29 µM. Further, the inhibition at 100 µM at Human recombinant COX-2 is 65.3 ± 2.65%.
